{
  "source": "patent EP0655065B1",
  "about": "“27-HYDROXYRAPAMYCIN AND DERIVATIVES THEREOF” (AMERICAN HOME PRODUCTS CORPORATION, priority 1992, dated 1994)",
  "key": {"[1]": {"tested_on": "cells from the thymus of normal BALB/c mice", "assay": "comitogen-induced thymocyte proliferation procedure (LAF)", "assay_type": "cell-based", "settings": "for IC50: read-out: L A F (IC50)", "protocol": "The comitogen-induced thymocyte proliferation procedure (LAF) was used as an in vitro measure of the immunosuppressive effects of representative compounds. Briefly, cells from the thymus of normal BALB/c mice are cultured for 72 hours with PHA and IL-1 and pulsed with tritiated thymidine during the last six hours. Cells are cultured with and without various concentrations of rapamycin, cyclosporin A, or test compound. Cells are harvested and incorporated radioactivity is determined. Inhibition of lymphoproliferation is assessed as percent change in counts per minute from non-drug treated controls. The results are expressed as an IC50."}, "[2]": {"tested_on": "pinch skin graft from male DBA/2 donors transplanted to male BALB/c recipients", "assay": "pinch skin graft survival time", "assay_type": "in vivo", "settings": "mean graft survival time, intraperitoneally", "protocol": "A representative compound of this invention was also evaluated in an in vivo test procedure designed to determine the survival time of pinch skin graft from male DBA/2 donors transplanted to male BALB/c recipients. […] Briefly, a pinch skin graft from the donor is grafted on the dorsum of the recipient as a homograft, and an autograft is used as control in the same region. The recipients are treated with either varying concentrations of cyclosporin A as test control or the test compound, intraperitoneally. Untreated recipients serve as rejection control. The graft is monitored daily and observations are recorded until the graft becomes dry and forms a blackened scab. This is considered as the rejection day. The mean graft survival time (number of days ± S.D.) of the drug treatment group is compared with the control group."}, "[3]": {"assay": "half life (stability) in 0.1 M phosphate buffer", "assay_type": "physicochemical", "settings": "for half-life: 0.1 m phosphate buffer, pH 7.4", "description": "The 27-hydroxyrapamycin derivatives of formulas II - X are also expected to resist ring degredative reactions better than rapamycin and 31- and/or 42- substituted rapamycin derivatives of rapamycin."}},
  "note": "Where “and” joins values, the source holds several entries; their conditions need not be identical. Equal entries are not always repeated. Where two headings read alike, the source gives them in different places.",
  "data": [
    {"molecule": "27-Hydroxyrapamycin", "values": [
      {"measurement": "IC50", "setting": "[1]; thymocytes cultured 72 hours with PHA and IL-1, tritiated thymidine incorporation", "result": 3.7, "unit": "nM"},
      {"measurement": "Skin Graft (days + SD)", "setting": "[2]; dose of 4 mg/kg, 4 mg/kg", "result": "8.5 ± 1.2 days and 8.17 ± 0.75 days and 8.00 ± 0.63 days"},
      {"measurement": "Skin Graft (days + SD)", "setting": "[2]; dose of 16 mg/kg, 16 mg/kg", "result": "9.17 ± 0.98^+ days and 9.17 ± 0.75^+ days"},
      {"measurement": "half life", "setting": "[3]; 0.1 M phosphate buffer (pH 7.4, 37° C)", "result": 17.5, "unit": "h"}
    ]},
    {"molecule": "CO[C@H]1C[C@@H]2CC[C@@H](C)[C@@](O)(O2)C(=O)C(=O)N2CCCC[C@H]2C(=O)O[C@H]([C@H](C)C[C@@H]2CC[C@@H](O)[C@H](OC)C2)CC(OC(C)=O)[C@H](C)/C=C(\\C)[C@@H](O)[C@@H](OC)C(=O)[C@H](C)C[C@H](C)/C=C/C=C/C=C/1C", "note": "(some centres unmarked) [Example 5, 27-Hydroxyrapamycin-27-ester with acetic acid]", "values": [
      {"measurement": "inhibition at 0.1 µM", "setting": "[1]; Mus musculus, T-cell, at 0.1 µM", "result": 69, "unit": "%"},
      {"measurement": "inhibition at 1 µM", "setting": "[1]; Mus musculus, T-cell, at 1 µM", "result": 94, "unit": "%"},
      {"measurement": "IC50", "setting": "[1]; Mus musculus, Thymocyte, thymocytes cultured 72 hours with PHA and IL-1, tritiated thymidine incorporation", "result": 99, "unit": "nM"},
      {"measurement": "half-life", "setting": "[3]", "result": 34, "unit": "h"}
    ]},
    {"molecule": "CO[C@H]1C[C@@H]2CC[C@@H](C)[C@@](O)(O2)C(=O)C(=O)N2CCCC[C@H]2C(=O)O[C@H]([C@H](C)C[C@@H]2CC[C@@H](O)[C@H](OC)C2)CC(=O)[C@H](C)/C=C(\\C)[C@@H](O)[C@@H](OC)C(=O)[C@H](C)C[C@H](C)/C=C/C=C/C=C/1C", "note": "[Rapamycin]", "values": [
      {"measurement": "IC50", "setting": "[1]; Mus musculus, Thymocyte, 72 h", "result": 4.8, "unit": "nM"},
      {"measurement": "Skin Graft (days + SD)", "setting": "[2]; dose of 4 mg/kg", "result": "12.0 ± 1.7", "unit": "days"},
      {"measurement": "half-life", "setting": "[3]", "result": 11.8, "unit": "h"}
    ]}
  ]
}
